This note sets out measurements from patent US12723063B2, “GIPR-agonist compounds” (Eli Lilly and Company, priority 2019, dated 2026).

What all share (experiment): cAMP functional assay (HTRF) in HEK293 cells in presence of 0.1% casein
What all share (assay type): cell-based
Background: In TR-FRET formats the signal depends on donor and acceptor labels being close together.

Assay [1] has as its target T1, human glucose-dependent insulinotropic peptide receptor (GIPR) (Homo sapiens, UniProt P48546).
T1 construct: expressed in transfected cells; host or cells: HEK293
T1 sequence (P48546 22-466): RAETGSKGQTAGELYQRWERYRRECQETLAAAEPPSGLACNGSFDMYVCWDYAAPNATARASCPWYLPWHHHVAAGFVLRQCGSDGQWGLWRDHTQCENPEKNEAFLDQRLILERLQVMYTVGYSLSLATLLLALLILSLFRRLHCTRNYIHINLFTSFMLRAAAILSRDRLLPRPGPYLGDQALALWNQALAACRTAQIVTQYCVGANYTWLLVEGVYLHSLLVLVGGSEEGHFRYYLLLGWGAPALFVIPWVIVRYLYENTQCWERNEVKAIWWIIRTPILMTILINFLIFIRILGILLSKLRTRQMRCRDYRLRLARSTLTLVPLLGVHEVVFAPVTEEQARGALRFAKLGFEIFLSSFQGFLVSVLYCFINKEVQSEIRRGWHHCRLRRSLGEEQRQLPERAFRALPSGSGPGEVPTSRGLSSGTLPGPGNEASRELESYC
The conditions noted are these: HEK293 cells expressing human GIPR, geometric mean, read-out: hGIPR cAMP Rel EC50 nM (SEM, n).

Assay [2] deals with T2, human GLP-1 receptor (GLP-1R) (Homo sapiens, UniProt P43220).
T2 construct: expressed in transfected cells; host or cells: HEK293
The conditions noted are these: HEK293 cells expressing human GLP-1R, geometric mean, read-out: hGLP1R cAMP Rel EC50 nM (SEM, n).

In assay [3] the target is T3, human glucagon receptor (GcgR) (Homo sapiens, UniProt P47871).
T3 construct: expressed in transfected cells; host or cells: HEK293
As to conditions: HEK293 cells expressing human GcgR, geometric mean, read-out: hGcgR cAMP Rel EC50 nM (SEM, n).

Structures are written as SMILES. *1 amine or outer side, *2 acyl side, *3 side chain or, on linkers, in order; H or OH if unused. Where a SMILES comes first, the peptide text is derived from it. Side-chain parts run from the residue outwards. [ ]: non-standard residue; d: D form. The star is where a group is joined. C20 diacid = O=C(O)CCCCCCCCCCCCCCCCCCC(=O)*; C18 diacid = O=C(O)CCCCCCCCCCCCCCCCC(=O)*; γGlu = O=C(O)[C@H](CCC(=O)[*:2])N[*:1]; AEEA = NCCOCCOCC(=O)O; Aib = CC(C)(N)C(=O)O Some results are limits rather than exact numbers.

T2 sequence (P43220 24-463): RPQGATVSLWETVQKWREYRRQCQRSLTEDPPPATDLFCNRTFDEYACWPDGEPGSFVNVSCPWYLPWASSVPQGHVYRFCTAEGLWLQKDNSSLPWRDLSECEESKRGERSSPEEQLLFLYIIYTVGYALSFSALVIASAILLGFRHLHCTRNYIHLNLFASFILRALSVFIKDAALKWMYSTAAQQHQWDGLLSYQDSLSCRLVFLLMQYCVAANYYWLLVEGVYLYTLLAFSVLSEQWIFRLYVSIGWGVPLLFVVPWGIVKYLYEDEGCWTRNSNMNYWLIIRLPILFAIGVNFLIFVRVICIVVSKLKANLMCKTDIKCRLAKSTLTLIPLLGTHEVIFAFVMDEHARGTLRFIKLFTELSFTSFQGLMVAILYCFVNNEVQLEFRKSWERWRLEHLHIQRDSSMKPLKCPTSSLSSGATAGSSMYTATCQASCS
T3 sequence (P47871 26-477): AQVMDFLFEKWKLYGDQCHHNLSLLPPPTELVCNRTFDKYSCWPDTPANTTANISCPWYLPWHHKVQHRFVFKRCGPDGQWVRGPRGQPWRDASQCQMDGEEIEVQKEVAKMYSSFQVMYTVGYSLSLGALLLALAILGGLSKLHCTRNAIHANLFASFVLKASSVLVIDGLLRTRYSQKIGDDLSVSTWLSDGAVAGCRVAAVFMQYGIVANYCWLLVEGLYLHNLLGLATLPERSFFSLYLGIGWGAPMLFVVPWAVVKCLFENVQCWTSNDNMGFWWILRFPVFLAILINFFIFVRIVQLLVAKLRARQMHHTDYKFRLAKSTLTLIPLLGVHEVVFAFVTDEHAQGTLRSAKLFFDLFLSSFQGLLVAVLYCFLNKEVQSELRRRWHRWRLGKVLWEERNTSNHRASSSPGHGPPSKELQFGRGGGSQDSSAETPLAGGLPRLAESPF

For `CC[C@H](C)[C@H](NC(=O)[C@H](CO)NC(=O)[C@H](Cc1ccc(O)cc1)NC(=O)[C@H](CC(=O)O)NC(=O)[C@H](CO)NC(=O)[C@@H](NC(=O)[C@H](Cc1ccccc1)NC(=O)[C@@H](NC(=O)CNC(=O)[C@H](CCC(=O)O)NC(=O)[C@@H](C)NC(=O)[C@@H](N)Cc1ccc(O)cc1)[C@@H](C)O)[C@@H](C)CC)C(=O)N[C@@H](CC(C)C)C(=O)N[C@@H](CC(C)C)C(=O)N[C@@H](CC(=O)O)C(=O)N[C@@H](CCCCN)C(=O)N[C@@H](CCCCNC(=O)COCCOCCNC(=O)COCCOCCNC(=O)CC[C@H](NC(=O)CCCCCCCCCCCCCCCCCCC(=O)O)C(=O)O)C(=O)N[C@@H](C)C(=O)N[C@@H](CCC(N)=O)C(=O)N[C@@H](CCC(N)=O)C(=O)N[C@@H](CC(=O)O)C(=O)N[C@@H](Cc1ccccc1)C(=O)N[C@H](C(=O)N[C@@H](CC(N)=O)C(=O)N[C@@H](Cc1c[nH]c2ccccc12)C(=O)N[C@@H](CC(C)C)C(=O)N[C@@H](CC(C)C)C(=O)N[C@@H](C)C(=O)N[C@@H](CCC(N)=O)C(=O)NCC(=O)N1CCC[C@H]1C(=O)N[C@@H](CO)C(=O)N[C@@H](CO)C(=O)NCC(=O)N[C@@H](C)C(=O)N1CCC[C@H]1C(=O)N1CCC[C@H]1C(=O)N1CCC[C@H]1C(=O)N[C@@H](CO)C(N)=O)C(C)C` [Example 11] (H-Y[dA]EGTFISDYSILLDKK([AEEA-AEEA-γGlu-C20 diacid])AQQDFVNWLLAQGPSSGAPPPS-NH2), the results for the EC50 in assay [1], in assay [2] and in assay [3] were 0.0738 nM, above 100 nM and 445 nM, respectively.

Turning to `CC[C@H](C)[C@H](NC(=O)[C@H](CO)NC(=O)[C@H](Cc1ccc(O)cc1)NC(=O)[C@H](CC(=O)O)NC(=O)[C@H](CO)NC(=O)[C@@H](NC(=O)[C@H](Cc1ccccc1)NC(=O)[C@@H](NC(=O)CNC(=O)[C@H](CCC(=O)O)NC(=O)[C@@H](C)NC(=O)[C@@H](N)Cc1ccc(O)cc1)[C@@H](C)O)[C@@H](C)CC)C(=O)N[C@@H](CC(C)C)C(=O)N[C@@H](CC(C)C)C(=O)N[C@@H](CC(=O)O)C(=O)N[C@@H](CCCCN)C(=O)N[C@@H](CCCCNC(=O)COCCOCCNC(=O)COCCOCCNC(=O)CC[C@H](NC(=O)CCCCCCCCCCCCCCCCCCC(=O)O)C(=O)O)C(=O)N[C@@H](C)C(=O)N[C@@H](CCC(N)=O)C(=O)N[C@@H](CCC(N)=O)C(=O)N[C@@H](CC(=O)O)C(=O)N[C@@H](Cc1ccccc1)C(=O)N[C@H](C(=O)N[C@@H](CC(N)=O)C(=O)N[C@@H](Cc1c[nH]c2ccccc12)C(=O)N[C@@H](CC(C)C)C(=O)N[C@@H](CC(C)C)C(=O)N[C@@H](C)C(=O)NCC(=O)NCC(=O)N1CCC[C@H]1C(=O)N[C@@H](CO)C(=O)N[C@@H](CO)C(=O)NCC(=O)N[C@@H](C)C(=O)N1CCC[C@H]1C(=O)N1CCC[C@H]1C(=O)N1CCC[C@H]1C(=O)N[C@@H](CO)C(N)=O)C(C)C` [Example 12] (H-Y[dA]EGTFISDYSILLDKK([AEEA-AEEA-γGlu-C20 diacid])AQQDFVNWLLAGGPSSGAPPPS-NH2), the concentration giving a half-maximal response (EC50) in assay [1] was 0.0911 nM; in assay [2], above 100 nM; in assay [3], above 5000 nM.

In the case of `CC[C@H](C)[C@H](NC(=O)[C@H](CO)NC(=O)[C@H](Cc1ccc(O)cc1)NC(=O)[C@H](CC(=O)O)NC(=O)[C@H](CO)NC(=O)[C@@H](NC(=O)[C@H](Cc1ccccc1)NC(=O)[C@@H](NC(=O)CNC(=O)[C@H](CCC(=O)O)NC(=O)[C@@H](C)NC(=O)[C@@H](N)Cc1ccc(O)cc1)[C@@H](C)O)[C@@H](C)CC)C(=O)N[C@@H](CC(C)C)C(=O)N[C@@H](CC(C)C)C(=O)N[C@@H](CC(=O)O)C(=O)N[C@@H](CCCCN)C(=O)N[C@@H](CCCCNC(=O)COCCOCCNC(=O)COCCOCCNC(=O)CC[C@H](NC(=O)CCCCCCCCCCCCCCCCCCC(=O)O)C(=O)O)C(=O)N[C@@H](Cc1c[nH]cn1)C(=O)N[C@@H](CCC(N)=O)C(=O)N[C@@H](CCC(N)=O)C(=O)N[C@@H](CCC(=O)O)C(=O)N[C@@H](Cc1ccccc1)C(=O)N[C@H](C(=O)N[C@@H](CC(N)=O)C(=O)N[C@@H](Cc1c[nH]c2ccccc12)C(=O)N[C@@H](CC(C)C)C(=O)N[C@@H](CC(C)C)C(=O)N[C@@H](C)C(=O)N[C@@H](CCC(N)=O)C(=O)NCC(=O)N1CCC[C@H]1C(=O)N[C@@H](CO)C(=O)N[C@@H](CO)C(=O)NCC(=O)N[C@@H](C)C(=O)N1CCC[C@H]1C(=O)N1CCC[C@H]1C(=O)N1CCC[C@H]1C(=O)N[C@@H](CO)C(N)=O)C(C)C` [Example 13] (H-Y[dA]EGTFISDYSILLDKK([AEEA-AEEA-γGlu-C20 diacid])HQQEFVNWLLAQGPSSGAPPPS-NH2), the EC50 in assay [1] is 0.129 nM; in assay [2], above 100 nM; in assay [3], above 5000 nM.

Turning to `CC[C@H](C)[C@H](NC(=O)[C@H](CO)NC(=O)[C@H](Cc1ccc(O)cc1)NC(=O)[C@H](CC(=O)O)NC(=O)[C@H](CO)NC(=O)[C@@H](NC(=O)[C@H](Cc1ccccc1)NC(=O)[C@@H](NC(=O)CNC(=O)[C@H](CCC(=O)O)NC(=O)[C@@H](C)NC(=O)[C@@H](N)Cc1ccc(O)cc1)[C@@H](C)O)[C@@H](C)CC)C(=O)N[C@@H](CC(C)C)C(=O)N[C@@H](CC(C)C)C(=O)N[C@@H](CC(=O)O)C(=O)N[C@@H](CCCCN)C(=O)N[C@@H](CCCCNC(=O)COCCOCCNC(=O)COCCOCCNC(=O)CC[C@H](NC(=O)CCCCCCCCCCCCCCCCCCC(=O)O)C(=O)O)C(=O)N[C@@H](Cc1c[nH]cn1)C(=O)N[C@@H](CCC(N)=O)C(=O)N[C@@H](CCC(N)=O)C(=O)N[C@@H](CC(=O)O)C(=O)N[C@@H](Cc1ccccc1)C(=O)N[C@H](C(=O)N[C@@H](CCC(=O)O)C(=O)N[C@@H](Cc1c[nH]c2ccccc12)C(=O)N[C@@H](CC(C)C)C(=O)N[C@@H](CC(C)C)C(=O)N[C@@H](C)C(=O)N[C@@H](CCC(N)=O)C(=O)NCC(=O)N1CCC[C@H]1C(=O)N[C@@H](CO)C(=O)N[C@@H](CO)C(=O)NCC(=O)N[C@@H](C)C(=O)N1CCC[C@H]1C(=O)N1CCC[C@H]1C(=O)N1CCC[C@H]1C(=O)N[C@@H](CO)C(N)=O)C(C)C` [Example 14] (H-Y[dA]EGTFISDYSILLDKK([AEEA-AEEA-γGlu-C20 diacid])HQQDFVEWLLAQGPSSGAPPPS-NH2), the EC50 was 0.34 nM in assay [1], above 100 nM in assay [2] and above 5000 nM in assay [3].

`CC[C@H](C)[C@H](NC(=O)[C@H](CO)NC(=O)[C@H](Cc1ccc(O)cc1)NC(=O)[C@H](CC(=O)O)NC(=O)[C@H](CO)NC(=O)[C@@H](NC(=O)[C@H](Cc1ccccc1)NC(=O)[C@@H](NC(=O)CNC(=O)[C@H](CCC(=O)O)NC(=O)[C@@H](C)NC(=O)[C@@H](N)Cc1ccc(O)cc1)[C@@H](C)O)[C@@H](C)CC)C(=O)N[C@@H](CC(C)C)C(=O)N[C@@H](CC(C)C)C(=O)N[C@@H](CC(=O)O)C(=O)N[C@@H](CCCCN)C(=O)N[C@@H](CCCCNC(=O)COCCOCCNC(=O)COCCOCCNC(=O)CC[C@H](NC(=O)CCCCCCCCCCCCCCCCCCC(=O)O)C(=O)O)C(=O)N[C@@H](Cc1c[nH]cn1)C(=O)N[C@@H](CCC(N)=O)C(=O)N[C@@H](CCC(N)=O)C(=O)N[C@@H](CC(=O)O)C(=O)N[C@@H](Cc1ccccc1)C(=O)N[C@H](C(=O)N[C@@H](CC(N)=O)C(=O)N[C@@H](Cc1ccc(O)cc1)C(=O)N[C@@H](CC(C)C)C(=O)N[C@@H](CC(C)C)C(=O)N[C@@H](C)C(=O)N[C@@H](CCC(N)=O)C(=O)NCC(=O)N1CCC[C@H]1C(=O)N[C@@H](CO)C(=O)N[C@@H](CO)C(=O)NCC(=O)N[C@@H](C)C(=O)N1CCC[C@H]1C(=O)N1CCC[C@H]1C(=O)N1CCC[C@H]1C(=O)N[C@@H](CO)C(N)=O)C(C)C` [Example 15] (H-Y[dA]EGTFISDYSILLDKK([AEEA-AEEA-γGlu-C20 diacid])HQQDFVNYLLAQGPSSGAPPPS-NH2): the EC50 in assay [1] is 0.282 nM; in assay [2], above 100 nM; in assay [3] it was above 5000 nM.

For the molecule `CC[C@H](C)[C@H](NC(=O)[C@H](CO)NC(=O)[C@H](Cc1ccc(O)cc1)NC(=O)[C@H](CC(=O)O)NC(=O)[C@H](CO)NC(=O)[C@@H](NC(=O)[C@H](Cc1ccccc1)NC(=O)[C@@H](NC(=O)CNC(=O)[C@H](CCC(=O)O)NC(=O)[C@@H](C)NC(=O)[C@@H](N)Cc1ccc(O)cc1)[C@@H](C)O)[C@@H](C)CC)C(=O)N[C@@H](CC(C)C)C(=O)N[C@@H](CC(C)C)C(=O)N[C@@H](CC(=O)O)C(=O)N[C@@H](CCCCN)C(=O)N[C@@H](CCCCNC(=O)COCCOCCNC(=O)COCCOCCNC(=O)CC[C@H](NC(=O)CCCCCCCCCCCCCCCCC(=O)O)C(=O)O)C(=O)N[C@@H](C)C(=O)N[C@@H](CCC(N)=O)C(=O)NC(C)(C)C(=O)N[C@@H](CC(=O)O)C(=O)N[C@@H](Cc1ccccc1)C(=O)N[C@H](C(=O)N[C@@H](CCC(=O)O)C(=O)N[C@@H](Cc1c[nH]c2ccccc12)C(=O)N[C@@H](CC(C)C)C(=O)N[C@@H](CC(C)C)C(=O)N[C@@H](C)C(=O)N[C@@H](CCC(N)=O)C(=O)NCC(=O)N1CCC[C@H]1C(=O)N[C@@H](CO)C(=O)N[C@@H](CO)C(=O)NCC(=O)N[C@@H](C)C(=O)N1CCC[C@H]1C(=O)N1CCC[C@H]1C(=O)N1CCC[C@H]1C(=O)N[C@@H](CO)C(N)=O)C(C)C` [Example 16] (H-Y[dA]EGTFISDYSILLDKK([AEEA-AEEA-γGlu-C18 diacid])AQ[Aib]DFVEWLLAQGPSSGAPPPS-NH2), the results for the 50% effective concentration (EC50) in assay [1], in assay [2] and in assay [3] were 0.00937 nM, above 5000 nM and above 5000 nM, respectively.

What is called EC50 is the concentration at which the effect is half-maximal.
